{
  "source": "patent US20240280589A1",
  "about": "“USE OF FIBRONECTIN IN PREDICTING PREECLAMPSIA” (Sinai Health System, priority 2023, published 2024)",
  "type_in_all_cases": "cell-based, human",
  "key": {"[1]": {"tested_on": "JEG3 cells", "assay": "Western blot for fibronectin in sEVs from JEG3 cell conditioned media", "description": "Subsequent Western blotting was performed."}, "[2]": {"tested_on": "placental villous explants", "assay": "Fibronectin in sEVs from placental villous explant culture", "conditions": "E-PE villous explants maintained at 3% O2, Hinokitiol", "description": "Villous explants were isolated and cultured in 12-well plates with mesh inserts, from term control (n=3) and E-PE placentae (n=3). Term explants were maintained at normoxia (8% O2) or hypoxia (3% O2), while E-PE explants were maintained at 3% O2 (constituting their normoxia) and treated with […] Hinokitiol. Following incubation with their respective treatments, explant tissue was snap-frozen in liquid nitrogen for protein extraction and downstream analyses, while small extracellular vesicles (sEVs) were isolated from conditioned media by ultrafiltration using Amicon® Ultra-4 Centrifugal Filter Units (UFC8100, Millipore Sigma). […] Subsequent Western blotting was performed."}, "[3]": {"tested_on": "JEG3 cells", "assay": "Immunofluorescence co-localization of fibronectin with CD63/RAB7 in JEG3 cells"}, "[4]": {"tested_on": "preeclampsia pMSCs", "assay": "Exposure of preeclampsia placental mesenchymal stromal cells (pMSCs)"}},
  "data": [
    {"smiles": "CC(C)c1cccc(=O)c(O)c1", "note": "[Hinokitiol]", "values": [
      {"measurement": "sEV fibronectin content", "setting": "[1]; JEG3 cells at 3% O2, 24 hours, 1 μM, normalized to CD63", "value": "significantly reduced sEV fibronectin content to control levels"},
      {"measurement": "sEV fibronectin levels", "setting": "[1]; JEG3 cells at 21% O2", "value": "no discernible effect"},
      {"measurement": "fibronectin increase in explant-derived sEVs", "setting": "[2]", "value": "attenuated"},
      {"measurement": "Pearson's Correlation Coefficient between fibronectin and CD63", "setting": "[3]; 3% O2 + 1 μM Hinokitiol", "value": 0.31},
      {"measurement": "fibronectin co-localization with late endosomal marker RAB7 and sEV marker CD63", "setting": "[3]; 3% O2, relative to hypoxia alone", "value": "attenuated fibronectin co-localization"},
      {"measurement": "fibronectin fibrillar deposition", "setting": "[4]", "value": "improved"},
      {"measurement": "labile (useable) intracellular iron pool", "setting": "[4]", "value": "restored"}
    ]}
  ]
}
